Entries after “also recorded” stand apart in the source; their conditions may differ. Ends that are not written are not given here.
What was measured:
[1] = test system: Normal human lung fibroblasts (NHLF); assay: α-thrombin-induced calcium mobilization in fibroblasts (fura-2); format: cell-based; settings: for Ca2+ % Inhibition At 0.2 mM Peptide: thrombin-induced calcium mobilization in fibroblasts
Method: The second assay developed to assess peptides from the combinatorial libraries uses inhibition of α-thrombin-induced calcium mobilization in fibroblasts. Normal human lung fibroblasts (NHLF) were purchased from Clonetics, San Diego, Calif., an affiliate of Bio-Wittaker, Walkersville, Md. The cytoplasmic free Ca^2+ concentration ([Ca^2+]i) was measured using the fluorescent Ca^2+ indicator fura-2 (Molecular Probes, Inc., Eugene, Oreg.). Suspension of fibroblasts in Hepes-Tyrode's buffer were loaded with fura-2 by incubation at 37° C. with 2 μM fura-2/acetoxymethyl ester for 45 minutes according to the method of Rasmussen et al., J. Biol. Chem. 268, 14322 (1993). The labeled fibroblasts were separated from excess probe by washing by centrifugation at 1000 rpm (180×g). Aliquots of the labeled fibroblasts were transferred into a quartz cuvette with a magnetic stirrer, which was then placed in a thennostatically controlled chamber at 37° C. in a fluorescence spectrophotometer (Perkin-Elmer LS50B spectrofluorometer, Chicago, Ill.). Reagents, test peptide (SEQ ID NO: 5) (from 0.2 mM to effective lower concentration), and α-thrombin (2-4 nM), were sequentially added directly to the cuvette. The excitation wavelengths varied between 340 and 380 nm. Fluorescence was measured by recording emitted light at 510 nm as reported by Fisher et al., Mol Pharm. 35, 195 (1989). The minimum emission was determined on a solubilized fibroblast sample in the presence of 10 mM EDTA; maximum emission was determined on the same sample with 10 mM Ca^2+ added. The intrafibroblast free Ca^2+ concentration was calculated by the method of Grykiewicz et al., J. Biol. Chem. 260, 3440 (1985). The ratio of the fluorescence readings was calculated as R=340/380 nm and processed according to the equation [Ca^2+]i=KD((R−Rmim)/Rmax−R)) (Sf2/Sb2) to determine the intrafibroblast free Ca^2+ concentration. The KD for fura-2 was assumed to be 224 nM. Rmax and Rmin are the maximum and minimum fluorescence ratios measured at the end of the experiment, respectively; Sf2 and Sb2 are the fluorescence values at 380 nm in the absence and presence of saturating [Ca 2+], respectively. The reaction was monitored for 3-5 minutes. […] In FIG. 4, peptide RGDWC (SEQ ID NO: 20) at 0.2 mM inhibited 31% of 4 nM α-thrombin-induced Ca^2+ mobilization in fibroblasts.

[2] = biological target: T1, biotin-NAT12 (NATLDPRSFLLR, peptide from PAR1) (Homo sapiens, UniProt P25116); assay: Biotin-NAT12 binding assay to peptides coupled to microtiter plates; settings: peptides at 10 μg/ml coupled to microtiter plate
[3] = test system: platelets (platelet-rich plasma); assay: γ-thrombin-induced platelet aggregation in platelet-rich plasma; format: cell-based, human; settings: for Fold Increase in Aggregation Inhibition over RPPGF: γ-thrombin, compared to RPPGF at 0.2 mM
Method: (§1) Fresh whole blood was collected and mixed with 0.013 M sodium citrate and platelet-rich plasma was prepared according to the method of Meloni et al., J. Biol. Chem. 266, 6786 (1991). Platelet-rich plasma with a normalized platelet count between 2-2.5×10^8 platelets/ml was added to a cuvette of an aggregometer (Chronlog Corp., Havertown, Pa.), standardized using the protocol of Meloni et al., supra. Peptides to be examined were added to the cuvette and the mixture stabilized for a few moments. Once the baseline was stabilized, γ-thrombin (10-70 NM) (Haematologic Technologies, Essex Junction, Vt.) was added to determine the minimal concentration of the agonist necessary to achieve full platelet aggregation. All investigations with peptides were performed using threshold concentrations of γ-thrombin. Aggregation was allowed to proceed for 5 minutes before stopping. When ADP-induced platelet aggregation studies were performed, 1-5 μM ADP (Sigrna) was added to the cuvette containing platelet-rich plasma.

[4] = biological target: T1, biotin-NAT12 (NATLDPRSFLLR, peptide from PAR1); assay: Biotin-NAT12 binding assay to peptides coupled to microtiter plates; settings: relative to RPPGF given arbitrary binding level of 1
Method: A third assay was developed to ascertain the ability of biotin-NAT12 (NATLDPRSFLLR, SEQ ID NO: 41) to directly bind to peptides linked to microtiter plates. In this assay, peptide analogs were linked to microtiter plate cuvette wells by incubation of the peptide in 0.1 M Na2CO3, pH 9.6 buffer overnight at 4° C. After coupling the peptide to the cuvette well, the wells were dumped and each well was blocked with 1% bovine serun albumin in 0.01 M Na3PO4, 0.15 M NaCl, at pH 7.4. After incubation for 1 hour, the wells were dumped and washed three times with PBS-Tween. The wells were then incubated with biotin-NAT12. The amount of biotin-NAT12 bound was determined by adding streptavidin-peroxidase followed by adding turbo TMB (Pierce).
In decreasing order of binding level, these peptides include: RGKSC, RGKMC, RGKHC, RGKKC, RGKFC, RGKLC, RGKWC, and RGKVC (SEQ ID NOS 18, 7, 13, 14, 11, 1, 5 and 19, respectively). […] The best to least RGDO4C (SEQ ID NO: 44) peptides to bind biotin-NAT12 listed in Table VI are: RGDSC, RGDGC, RGDQC, RGDEC, RGDIC, RGDPC, RGDDC, and RGDYC (SEQ ID NOS 34, 28, 23, 22, 36, 38, 27 and 35, respectively). A solid phase peptide-peptide binding assay was used to determine biotin-NAT12 binding to library peptides. Test peptides in 0.1 M Na2CO3, pH 9.6 buffer, at 10 μg/well in 50 μl volume, were coupled to microtiter plate wells by overnight incubation at 4° C. After incubation, the contents of the wells were discarded and the wells were washed with a pH 7.4 buffer containing 0.01 M Na3PO4, 0.15 M NaCl, and 0.01% Tween 20. After blocking each well with 1% radioimmunoassay grade bovine serum albumin, the linked peptides were incubated with 100 μl of 100 μM biotin-NAT12 for 1 hour at 37° C. After incubation, the contents of the wells were dumped and the wells were washed three times (100 μl/well each time) with the buffer identified above. Each well then was incubated with 100 μl of 2 μg/ml solution of Immuno-Pure streptoavidin horeseradish peroxidase conjugate (Pierce Chemical Co., […], Ill.) for 1 hour at room temperature. The contents of the wells were discarded and the wells were washed three times as described above. The wells were then incubated with 100 μl of peroxidase-specific fast reacting substrate, turbo-3,3′,5,5′-tetramethylbenzidine (turbo-TMB, Pierce) for 5 minutes at room temperature and the developing color reaction was stopped by the addition of 100 μof 1 M phosphoric acid. The absorbance was measured at 450 nm using a Microplate Auto Reader EL311 (Bio-Tek, Winooski, Vt.).

[5] = test system: platelets (platelet-rich plasma); assay: ADP-induced platelet aggregation in platelet-rich plasma; format: cell-based, human; settings: 1 mM peptide, 4.5 μM ADP
Method: as §1

Row | Substance | peptide concentration at which α-thrombin overcame the inhibitory effect on Ca2+ mobilization ([1]; 2 nM α-thrombin, fibroblasts) [µM] | peptide concentration at which α-thrombin-induced calcium mobilization is abolished ([1]; 2 nM α-thrombin, fibroblasts) [mM] | peptide concentrations blocking α-thrombin-induced Ca2+ mobilization ([1]; 2 nM α-thrombin, fibroblasts) [µM] | Ca2+ % Inhibition At 0.2 mM Peptide ([1]; RGKO4C sublibrary) [%] | level of biotin-NAT12 binding compared with other peptides (in words) [2] | peptide concentration at which γ-thrombin-induced platelet aggregation returned ([3]; 70 nM γ-thrombin, platelet-rich plasma) [mM] | Fold Increase in Aggregation Inhibition over RPPGF ([3]; RGKO4C sublibrary, platelet-rich plasma) [fold] | Level of Binding to Biotin-NAT12 ([4]; RGKO4C sublibrary) | effect on ADP-induced platelet aggregation (in words) [5] | Ca2+ % Inhibition At 0.2 mM Peptide ([1]; RGDO4C sublibrary) [%] | Fold Increase in Aggregation Inhibition over RPPGF ([3]; RGDO4C sublibrary) [fold] | Level of Binding to Biotin-NAT12 ([4]; RGDO4C sublibrary)
1 | Arg-Gly-Lys-Trp-Cys (RGKWC-NH2) [peptide of the H-R-G-K-O4-C-NH2 sublibrary] | 12.5 | 0.2 | ≥ 50 | 62.5 | binds to a greater extent than peptide RGDWC; also recorded: greater than RPPGF; also recorded: less than that seen with the multiple branched peptide MAP4RPPGF | 0.125 | 1.3 | 1.3 | did not inhibit | – | – | –
2 | RGDSC: peptide of the H-R-G-D-O4-C-NH2 sublibrary (H-RGDSC-NH2) | – | – | – | – | equivalent to the ability of RGKWC | – | – | – | – | 0 | 5 | 1.44

Source: patent publication US6544750B1, “Peptide analogs as selective inhibitors of thrombin activation of protease activated receptor 1” (Thromgen, Inc., priority 1999, dated 2003)
